12 compounds from patent US11180510B2, “Xanthine derivatives and uses thereof as inhibitors of bromodomains of BET proteins” (Centre national de la recherche scientifique, priority 2017, dated 2021) can be followed below.

The term IC50 denotes the concentration that gives 50% inhibition.

Common to all, as to assay type: binding
For assay [1], the target named is T1, BRD4(BD1) (Homo sapiens, UniProt O60885). Put plainly: Isothermal Titration Calorimetry. As to conditions: ITC; read-out: Binding affinity (Kd) to BRD4(1) by Isothermal Titration Calorimetry. On the procedure:
FIG. 1. Isothermal Titration Calorimetry (ITC) of 43c. Thermogram (top) and non-linear least squares fit model of the integrated data (bottom) at 15° C. of Brd4 (BD1) […] as a function of the molar ratio of ligand to the protein.
ITC was used to evaluate the thermodynamics parameters of the binding between BRD4 (BD1) and the selected compounds. Titrations were carried out on a MicroCal ITC200 microcalorimeter (GE Healthcare, Piscataway, N.J.). Each experiment was designed using a titrant concentration (protein in the syringe generally between 100 and 400 μM) set 10 to 15 times the analyte concentration (compound in the cell generally between 10 and 40 μM) and using 13 injections at 25° C. A first small injection (generally 0.2 μL) was included in the titration protocol in order to remove air bubbles trapped in the syringe prior titration. Raw data were scaled after setting the zero to the titration saturation heat value. Integrated raw ITC data were fitted to a one site non-linear least squares fit model using the MicroCal Origin plugin as implemented in Origin 7 (Origin Lab). Finally, ΔG and TΔS values were calculated from the fitted ΔH and KA values using the equations ΔG=−R.T.inKA and ΔG=ΔH−TΔS.

For assay [2], the target named is T1, BRD4(BD1). Briefly: HTRF assay, BRD4(BD1)/histone peptide interaction. Also noted: made in house. As to conditions: for IC50: HTRF; for Ratio 4-1 vs 4-2: selectivity Brd4(BD1) vs Brd4(BD2), HTRF IC50. On the procedure:
(§1) HTRF assays were performed in white 384 Well Small Volume™ HiBase Polystyrene Microplates (Greiner) with a total working volume of 20 μL. Compounds were dispensed, with 100 nL per well (0.5% final DMSO), from a concentration stock of 10 mM in 100% DMSO and with serial DMSO dilutions, using an Echo® 550 robot from the Access Labcyte platform (Labcyte) and based on the transfer of liquid by acoustic wave. Then, 19.5 μL of buffer is added, using a Multidrop Combi (Thermo Fisher Scientific). […] All HTRF reagents (donor and acceptor) were purchased from CisBio Bioassays and reconstituted according to the supplier protocols. The peptide was purchased from Genic Bio Synthetic. The BRD4(1) protein was produced and purified in the laboratory.
(§2) Percentage of inhibition was calculated using the following equation: % inhibition=[(compound signal)−(min signal)]/[(max signal)−(min signal)]*100, where ‘max signal’ is the signal ratio with the compound vehicle alone (DMSO) and ‘min signal’ the signal ratio without peptide.
(§3) Selectivity profiles of bromodomain inhibitors were performed as described in HTRF screen section. […] HTRF detection reagents (EPIgeneous™ Binding Domain kits) were purchased from Cisbio Bioassays and used according to supplier's protocol. GST tagged bromodomain proteins were purchased from BPS Bioscience and histone peptide from Genic Bio Synthetic.

The next assay has as its target T2, Brd2(BD1) (Homo sapiens, UniProt P25440).
T2 construct: GST tagged bromodomain proteins were purchased from BPS Bioscience; purchased BPS Bioscience
Put plainly: HTRF BET selectivity profile, Brd2(BD1). As to conditions: for Ratio 2-1 vs 2-2: selectivity Brd2(BD1) vs Brd2(BD2), HTRF IC50. On the procedure: as §1, §2, §3
In general terms: In TR-FRET formats the signal depends on donor and acceptor labels being close together.

In a further assay the target is T3, Brdt(BD1) (Homo sapiens, UniProt Q58F21).
T3 construct: GST tagged bromodomain proteins were purchased from BPS Bioscience; purchased BPS Bioscience
Put plainly: HTRF BET selectivity profile, Brdt(BD1). On the procedure: (§4) HTRF assays were performed in white 384 Well Small Volume™ HiBase Polystyrene Microplates (Greiner) with a total working volume of 20 μL. Compounds were dispensed, with 100 nL per well (0.5% final DMSO), from a concentration stock of 10 mM in 100% DMSO and with serial DMSO dilutions, using an Echo® 550 robot from the Access Labcyte platform (Labcyte) and based on the transfer of liquid by acoustic wave. Then, 19.5 μL of buffer is added, using a Multidrop Combi (Thermo Fisher Scientific). Finally, for each assay, 200 nL of master mix (protein+donor+acceptor) and 200 nL of peptide Is added in the assay wells according to the final concentration and buffer described in Table 3, using the Echo® 550 robot (Labcyte). The IC50 measurements were performed in triplicates (Table 2 and 3). All HTRF reagents (donor and acceptor) were purchased from CisBio Bioassays and reconstituted according to the supplier protocols. The peptide was purchased from Genic Bio Synthetic. The BRD4(1) protein was produced and purified in the laboratory. HTRF signals were measured, after a final incubation (3 h or 6 h or overnight at room temperature or 4° C., according to the bromodomain), using a PHERAstar FS (BMG Labtech) with an excitation filter at 337 nm and fluorescence wavelength measurement at 620 and 665 nm, an integration delay of 60 μs and an integration time of 500 μs. Results were analyzed with a two-wavelengths signal ratio: [intensity (665 nm)/intensity (620 nm)]*104.
as §2, §3

The target in the next assay is T4, Brd4(BD2) (Homo sapiens, UniProt O60885).
T4 construct: GST tagged bromodomain proteins were purchased from BPS Bioscience; purchased BPS Bioscience
Put plainly: HTRF BET selectivity profile, Brd4(BD2). On the procedure:
as §4, §2, §3

Another assay deals with T5, Brd3(BD2) (Homo sapiens, UniProt Q15059).
T5 construct: GST tagged bromodomain proteins were purchased from BPS Bioscience; purchased BPS Bioscience
Briefly: HTRF BET selectivity profile, Brd3(BD2). On the procedure: as §4, §2, §3

The target in a further assay is T6, Brd2(BD2) (Homo sapiens, UniProt P25440).
T6 construct: GST tagged bromodomain proteins were purchased from BPS Bioscience; purchased BPS Bioscience
Briefly: HTRF BET selectivity profile, Brd2(BD2). On the procedure: as §1, §2, §3

A further assay has as its target Brd3(BD1) (Homo sapiens, UniProt Q15059). Briefly: HTRF BET selectivity profile, Brd3(BD1). Also noted: GST tagged bromodomain proteins were purchased from BPS Bioscience; purchased BPS Bioscience. As to conditions: for Ratio 3-1 vs 3-2: selectivity Brd3(BD1) vs Brd3(BD2), HTRF IC50. On the procedure:
as §1, §2, §3

The mark [3] stands for this setting: triplicates, NA = IC50 > maximal concentration of compound used.
Setting [4] is: mean of three experiments, NA = IC50 > 50 μM, read-out: Brd4(8D1) IC50.

“And” between values parts separate entries of the source, which are not always exact repeats. Identical values can stand only once. Like-named read-outs stand apart in the source and are kept apart here. Where only a bound is given, the exact number is not on record here.

T2 sequence (P25440 74-180 limits assumed): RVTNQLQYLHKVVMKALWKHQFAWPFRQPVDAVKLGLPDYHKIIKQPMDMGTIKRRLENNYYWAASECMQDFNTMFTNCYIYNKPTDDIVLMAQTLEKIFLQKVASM
Chain of Brd3(BD1) (Q15059 34-140 limits assumed): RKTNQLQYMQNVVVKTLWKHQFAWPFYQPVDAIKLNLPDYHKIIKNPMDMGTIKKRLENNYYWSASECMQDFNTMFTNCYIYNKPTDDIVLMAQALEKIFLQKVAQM
T5 sequence (Q15059 306-415 limits assumed): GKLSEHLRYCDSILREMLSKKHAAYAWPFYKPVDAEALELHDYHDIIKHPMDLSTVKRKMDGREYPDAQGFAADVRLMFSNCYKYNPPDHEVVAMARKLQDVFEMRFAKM
T6 sequence (P25440 344-453 limits assumed): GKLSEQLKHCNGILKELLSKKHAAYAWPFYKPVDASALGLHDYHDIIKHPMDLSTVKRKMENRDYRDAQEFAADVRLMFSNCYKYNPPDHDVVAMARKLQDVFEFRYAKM

Turning to `O=C1CCCc2cc(S(=O)(=O)NCC3CCC(C(=O)NCCc4cccs4)CC3)ccc2N1` (single isomer, unassigned) [Compound 5c], on BRD4(BD1) [1], the Kd came to 2.8 µM. This compound also had an IC50 against BRD4(BD1) [2] (setting [3]) of 7 µM.

On to `CCn1cnc2c1c(=O)[nH]c(=O)n2Cc1ccc(CNC(=O)c2ccc(Cn3cccc3)cc2)cc1` [Compound 33a], for which, at BRD4(BD1) [1], the Kd is 20.5 µM. The IC50 against BRD4(BD1) [2] (setting [3]) worked out at 0.371 µM.

With `O=C1CCCc2cc(S(=O)(=O)NCC3CCC(C(=O)NCCc4ccccn4)CC3)ccc2N1` (stereo not drawn) [Compound 7b], the Kd on BRD4(BD1) [1] is 8.8 µM. The same compound came in with an IC50 against BRD4(BD1) [2] (setting [3]) of 19 µM.

As for `CCn1cnc2c1c(=O)[nH]c(=O)n2Cc1ccc(CNS(=O)(=O)c2ccc3c(c2)CCCC(=O)N3)c2ccccc12` [Compound 31c], the IC50 at Brd2(BD1) (read-out: Brd2(BD1) IC50) is 4.35 µM; against Brdt(BD1), 3.36 µM; at Brd4(BD2) it was 4.21 µM; against Brd3(BD2), 2.13 µM; at Brd2(BD2) (read-out: Brd2(BD2) IC50), 3.08 µM; at BRD4(BD1) [2] (setting [4]), 3.46 µM. Moreover, the IC50 against BRD4(BD1) [2] (setting [3]) amounted to 3.5 µM; against Brd3(BD1), 5.71 µM. In addition, the “Ratio 2-1 vs 2-2” value on Brd2(BD1) stood at 0.7. Further, the “Ratio 4-1 vs 4-2” value at BRD4(BD1) [2] was determined as 1. Besides, at Brd3(BD1), the “Ratio 3-1 vs 3-2” value came out at 0.4.

Regarding `CCn1c(CSc2nc3nc(C)cc(C)n3n2)nc2c1c(=O)[nH]c(=O)n2Cc1ccc(CNS(=O)(=O)c2ccc3c(c2)CCCC(=O)N3)cc1` [Compound 32b], the IC50 came out at 4.37 µM against Brd2(BD1); 9.54 µM on Brdt(BD1); 28 µM on Brd4(BD2); 7.27 µM against Brd3(BD2); 3.94 µM on Brd2(BD2); 0.984 µM on BRD4(BD1) [2] (setting [4]). Besides, the IC50 is 0.964 µM and 2.7 µM at BRD4(BD1) [2] (setting [3]); 9.6 µM on Brd3(BD1). Besides, the “Ratio 2-1 vs 2-2” value on Brd2(BD1) turned out to be 0.9. Moreover, the “Ratio 4-1 vs 4-2” value at BRD4(BD1) [2] amounted to 29. For the same compound, the “Ratio 3-1 vs 3-2” value on Brd3(BD1) was 0.8.

As for `CCn1cnc2c1c(=O)[nH]c(=O)n2Cc1ccc(CNS(=O)(=O)c2ccc3c(c2)CCC(=O)N3)cc1` [Compound 27b], the IC50 at Brd2(BD1) (read-out: Brd2(BD1) IC50) amounted to 3.49 µM; against Brdt(BD1) it was 2.15 µM; against Brd4(BD2), 8.31 µM; against Brd3(BD2) it was 3.03 µM; at Brd2(BD2) (read-out: Brd2(BD2) IC50) it was 5.58 µM; on BRD4(BD1) [2] (setting [4]), 0.766 µM. In addition, the IC50 is 0.766 µM against BRD4(BD1) [2] (setting [3]) and 0.94 µM at Brd3(BD1). Also, the “Ratio 2-1 vs 2-2” value at Brd2(BD1) amounted to 2. For the same compound, at BRD4(BD1) [2], the “Ratio 4-1 vs 4-2” value came out at 11. In addition, the “Ratio 3-1 vs 3-2” value at Brd3(BD1) was found to be 3.

On to `COC(=O)C1CCC(CNS(=O)(=O)c2ccc3c(c2)CCCC(=O)N3)CC1` (stereo not drawn) [Compound 1c, Methyl 4-((2-oxo-2,3,4,5-tetrahydro-1H-benzo[b]azepine-7-sulfonamido)methyl)cyclohexanecarboxylate], for which, at BRD4(BD1) [2] (setting [3]), the IC50 turned out to be 53 µM.

In the case of `O=C1CCCc2cc(S(=O)(=O)NCc3ccc(C(=O)NCc4ccccn4)cc3)ccc2N1` [Compound 14a], the IC50 against BRD4(BD1) [2] (setting [3]) is over 25 µM.

`CCn1cnc2c1c(=O)[nH]c(=O)n2Cc1ccc(CNS(=O)(=O)c2ccc(OC3CCCCC3)cc2)cc1` [Compound 43a]: the IC50 on Brd2(BD1) (read-out: Brd2(BD1) IC50) was determined as 0.367 µM; on Brdt(BD1), 0.474 µM; against Brd4(BD2) it was 4.39 µM; against Brd3(BD2) it was 2.44 µM; on Brd2(BD2) (read-out: Brd2(BD2) IC50) it was 2.26 µM; on BRD4(BD1) [2] (setting [4]), 0.202 µM. Also, the values for the IC50 against BRD4(BD1) [2] (setting [3]) and against Brd3(BD1) were 0.202 µM and 0.258 µM, respectively. Besides, the “Ratio 2-1 vs 2-2” value on Brd2(BD1) was over 6. Also, the “Ratio 4-1 vs 4-2” value on BRD4(BD1) [2] was 22. For the same compound, the “Ratio 3-1 vs 3-2” value at Brd3(BD1) was 10.

Regarding `Cc1noc(C)c1CCNC(=O)c1ccc(CNS(=O)(=O)c2ccc3c(c2)CCCC(=O)N3)cc1` [Compound 16a], the IC50 on Brd2(BD1) (read-out: Brd2(BD1) IC50) stood at 8.7 µM; on Brdt(BD1) it was 12.5 µM; at BRD4(BD1) [2] (setting [4]), 10.9 µM; at BRD4(BD1) [2] (setting [3]) it was 11 µM; at Brd3(BD1) it was 8.62 µM. For the same compound, on Brd2(BD1), the “Ratio 2-1 vs 2-2” value was over 6. The Kd at BRD4(BD1) [1] was determined as 5.8 µM. The “Ratio 4-1 vs 4-2” value at BRD4(BD1) [2] is reported as over 5. The “Ratio 3-1 vs 3-2” value on Brd3(BD1) is recorded as over 6.

At BRD4(BD1) [2] (setting [3]), `CCn1cnc2c1c(=O)[nH]c(=O)n2Cc1ccc(CNC(=O)C(NC(=O)OC(C)(C)C)c2ccc(C)cc2)cc1` (stereo not drawn) [Compound 37b] registered an IC50 of 4.9 µM.

`CCn1cnc2c1c(=O)[nH]c(=O)n2Cc1ccc(CNS(=O)(=O)c2ccc(N)cc2)cc1` [Compound 28b] displayed an IC50 at BRD4(BD1) [2] (setting [3]) of 0.729 µM.
